Test results from patent US20240002388A1, “PYRIMIDINONE COMPOUNDS AND USES THEREOF” (HUTCHISON MEDIPHARMA LIMITED, priority 2020, published 2024).

Target: RIPK1 recombination protein (Homo sapiens (Human), UniProt Q13546)
Experiment: RIPK1 kinase activity assay (ADP-Glo)
Assay type: biochemical
Settings: RIPK1 kinase activity, ADP-Glo, 10 μM ATP
Experimental: RIPK1 recombination protein: synthesized by Shanghai Medicilon Inc. under the commission by Hutchison MediPharma Limited (50 g of cell pellet was resuspended in 250 mL of lysis buffer (50 mM Tris, pH 7.5, 250 mM NaCl, 1 mM DTT, protease inhibitor 1:50), the cells were ultrasonically lysed using a sonicator (the power set to 4) on ice for 3×30 minutes; then centrifugation was carried out at 4° C., at 15,000 g for 30 minutes to clarify the suspension, the soluble pellet was resuspended into 10 mL of glutathione agarose, and incubated at 4° C. for 2 hours; then the beads were loaded into the column and washed with lysis buffer (no protease inhibitors) to baseline, and eluted with 20 mM of reduced glutathione (50 mM Tris, pH 8). The fractions identified by SDS-PAGE as containing the protein of interest were collected (10 mL of total volume), concentrated to about 5 mL and loaded into 300 mL superdex75 column (GE Healthcare) equilibrated with buffer (50 mM Tris, pH 7.5, 150 mM NaCl, 1 mM DTT, 10% glycerol, pH 7.5). RIP1 protein was eluted as a dimer from the superdex75 column. The protein concentration was determined by the Bradford assay using BSA as the standard. The yield was 12.5 mg at 0.63 mg/mL. The protein was aliquoted and frozen at −80° C. for later use.
ADP-Glo Kinase kit can be used to measure ADP level in kinase activity assay so as to distinguish the inhibitory effects of different compounds on RIPK1 kinase activity. The ADP-Glo assay was usually divided into three steps. Firstly, the kinase converted ATP to ADP and phosphorylated the substrate at the same time; secondly, ATP digestion reagent was added to degrade all ATP in the reaction system; finally, a detection reagent was added to reduce ADP to ATP, and energy from ATP was transferred to […] which thus emitting a chemical luminescence that can be detected. Assay procedure can refer to manufacture's technical manual.
(2) Reagent Preparation: • 1.33× kinase buffer: 5× kinase buffer stock (250 mM of NaCl, 150 mM of MgCl2, 2.5 mg/ml BSA (bovine serum albumin), 0.1% CHAPS (3-[(3-cholamidopropyl)-dimethyl-ammonio]-1-propane sulfonate), and 5 mM of dithiothreitol) was diluted with water to 1.33× kinase buffer; • RIPK1 enzyme solution: the kinase was dissolved in 1.33× kinase buffer to make 40 nM as the final working concentration; • ATP solution: 10 mM ATP stock solution in water was dissolved in 1.33× kinase buffer to make 10 μM as the final working concentration; • 4× compound preparation: the compound was diluted in a 3-fold gradient, and finally 4% DMSO aqueous solution containing different concentrations of the compound was obtained. The final concentrations of the test compound were 10, 3.33, 1.11, 0.37, 0.12, 0.04, 0.014, and 0.005 μM.
The assay set up two control groups, one was 100% inhibition group (no enzyme treatment), another was 0% inhibition group (no inhibitor treatment), each control group contained 8 replicate wells. 2.5 μl of serially diluted compound was added to each well of a 384-well plate, with double replicate wells, and 4% DMSO solution was added to control wells. Then 5 μl of RIPK1 enzyme solution was added to each well except 100% inhibition control, 5 ul of buffer was added to 100% inhibition control, after that, 2.5 μl of ATP solution was added to all wells, the plate was vibrated at 1000 rpm for 30 seconds to perform transient centrifuge; finally the 384-well assay plate was put in the shaking incubator, and incubated at room temperature for 3 hours. After the enzymatic reaction was completed, 5 μl of ATP depletion reagent was added to each well, the mixture was centrifuged transiently, then the 384-well assay plate was put in the shaking incubator, and incubated at room temperature for 1 hour. 5 μl of ADP detection reagent was added to each well, and the mixture was centrifuged transiently, and incubated at room temperature for 0.5 hour. […]

Chain of RIPK1 recombination protein (Q13546 other isoform, or with tags, fused parts or gaps): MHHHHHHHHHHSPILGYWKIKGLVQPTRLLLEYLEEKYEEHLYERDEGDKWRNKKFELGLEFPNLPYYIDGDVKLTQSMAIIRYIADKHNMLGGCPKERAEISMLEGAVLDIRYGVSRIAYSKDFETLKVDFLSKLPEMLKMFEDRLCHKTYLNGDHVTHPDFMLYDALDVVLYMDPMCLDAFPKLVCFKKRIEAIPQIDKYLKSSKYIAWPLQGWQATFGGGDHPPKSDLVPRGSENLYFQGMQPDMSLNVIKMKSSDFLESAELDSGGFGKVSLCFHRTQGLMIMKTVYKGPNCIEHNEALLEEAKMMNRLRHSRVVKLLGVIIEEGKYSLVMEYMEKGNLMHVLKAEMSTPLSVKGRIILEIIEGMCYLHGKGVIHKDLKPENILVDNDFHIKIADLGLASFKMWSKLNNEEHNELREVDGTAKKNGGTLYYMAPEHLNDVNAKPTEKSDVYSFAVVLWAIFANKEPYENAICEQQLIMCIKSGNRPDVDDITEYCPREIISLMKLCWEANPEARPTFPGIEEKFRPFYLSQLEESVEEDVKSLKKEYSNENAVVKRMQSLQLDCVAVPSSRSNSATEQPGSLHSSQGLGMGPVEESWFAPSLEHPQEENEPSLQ

SMILES | IC50 [nM]
CC(C)n1ncc2cnc(C(=O)NC3(c4ccc(-c5cncn(C6CCOC6)c5=O)cc4)CC3)nc21 (stereo in doubt) [Compound 81, (S)-1-i-propyl-N-(1-(4-(6-oxo-1-(tetrahydrofuran-3-yl)-1,6-dihydropyrimidin-5-yl)phenyl)cyclopropyl)-1H-pyrazolo[3,4-d]pyrimidine-6-carboxamide] | 39
Cn1cncc(-c2ccc(C3(NC(=O)c4cc(Cc5ccccc5)on4)CC3)cc2)c1=O [Compound 5] | 57
Cn1cncc(-c2ccc(C3(NC(=O)c4ncc(Cc5ccccc5)o4)CC3)cc2)c1=O [Compound 10] | 26
Cn1cncc(-c2ccc(C3(NC(=O)c4nnc(Cc5ccccc5)o4)CC3)cc2)c1=O [Compound 11] | 38
CC(C)n1ncc2cnc(C(=O)NC3(c4ccc(-c5cncn([C@@H](C)C(F)(F)F)c5=O)cc4)CC3)nc21 [Compound 40] | 52
CC(C)n1cncc(-c2ccc(C3(NC(=O)c4ncc5cnn(C(C)C)c5n4)CC3)c(F)c2F)c1=O [Compound 93] | 35
C[C@H](n1cncc(-c2ccc(C3(NC(=O)c4ncc5cnn(CC6CC6)c5n4)CC3)cc2)c1=O)C(F)(F)F [Compound 68] | 43
C[C@@H](n1cncc(-c2ccc(C3(NC(=O)c4ncc5cnn(CC6CC6)c5n4)CC3)cc2)c1=O)C(F)(F)F [Compound 70] | 51
CC(C)n1ncc2cnc(C(=O)NC3(c4ccc(-c5cncn(CC6CC6)c5=O)c(F)c4)CC3)nc21 [Compound 75] | 51
CC(C)n1ncc2cnc(C(=O)NC3(c4ccc(-c5cncn(C)c5=O)cc4)CC3)nc21 [Compound 1, 1-isopropyl-N-(1-(4-(1-methyl-6-oxo-1,6-dihydropyrimidin-5-yl)phenyl)cyclopropyl)-1H-pyrazolo[3,4-d]pyrimidine-6-carboxamide] | 28
Cn1cncc(-c2ccc(C3(NC(=O)c4nnc(Cc5ccccc5)[nH]4)CC3)cc2)c1=O [Compound 3] | 35
CC(C)Cn1cncc(-c2ccc(C3(NC(=O)c4ncc5cnn(C(C)C)c5n4)CC3)cc2)c1=O [Compound 45] | 40
CC(C)n1ncc2cnc(C(=O)NC3(c4ccc(-c5cncn(C)c5=O)cc4F)CC3)nc21 [Compound 26] | 22
CC(C)n1ncc2cnc(C(=O)NC3(c4ccc(-c5cncn([C@@H](C)C6CC6)c5=O)cc4)CC3)nc21 [Compound 85, (S)—N-(1-(4-(1-(1-cyclopropylethyl)-6-oxo-1,6-dihydropyrimidin-5-yl)phenyl)cyclopropyl)-1-i-propyl-1H-pyrazolo[3,4-d]pyrimidine-6-carboxamide] | 30
Cn1cncc(-c2ccc(C3(NC(=O)c4ncc5cnn(-c6ccccc6)c5n4)CC3)cc2)c1=O [Compound 4] | 26
CC(C)n1ncc2cnc(C(=O)NC3(c4ccc(-c5cncn(CC6CC6)c5=O)c(F)c4F)CC3)nc21 [Compound 95] | 28
CC[C@H](C)n1cncc(-c2ccc(C3(NC(=O)c4ncc5cnn(C(C)C)c5n4)CC3)cc2)c1=O [Compound 43] | 32
CC(C)n1cncc(-c2ccc(C3(NC(=O)c4ncc5cnn(CC6CC6)c5n4)CC3)c(F)c2)c1=O [Compound 72] | 65
CC(C)n1ncc2cnc(C(=O)NC3(c4ccc(-c5cncn(C6COC6)c5=O)cc4)CC3)nc21 [Compound 41] | 61
CC(C)Cc1nc(C(=O)NC2(c3ccc(-c4cncn(C)c4=O)cc3)CC2)ncc1Cl [Compound 6] | 56
CC(C)n1ncc2cnc(C(=O)NC3(c4ccc(-c5cncn([C@@H](C)C(F)(F)F)c5=O)cc4F)CC3)nc21 (stereo in doubt) [Compound 47] | 29

SMILES | IC50 [nM]
CC(C)n1ncc2cnc(C(=O)NC3(c4ccc(-c5cncn(C6CC6)c5=O)cc4)CC3)nc21 [Compound 12] | 9
CC(C)n1ncc2cnc(C(=O)NC3(c4ccc(-c5cncn(CC6CCC6)c5=O)cc4)CC3)nc21 [Compound 66] | 48
CC(C)n1ncc2cnc(C(=O)NC3(c4ccc(-c5cncn(CC6(C)CC6)c5=O)cc4)CC3)nc21 [Compound 86] | 14
CC(C)n1ncc2cnc(C(=O)NC3(c4ccc(-c5cncn(C)c5=O)cc4)CC3)cc21 [Compound 28, 1-isopropyl-N-(1-(4-(1-methyl-6-oxo-1,6-dihydropyrimidin-5-yl)phenyl)cyclopropyl)-1H-pyrazolo[4,3-c]pyridine-6-carboxamide] | 95
CC(C)n1ncc2cnc(C(=O)NC3(c4ccc(-c5cncn(CC6CC6)c5=O)cc4)CC3)nc21 [Compound 36] | 42
CC(C)Cc1nc(C(=O)NC2(c3ccc(-c4cncn(C(C)C)c4=O)cc3)CC2)ncc1Cl [Compound 22] | 55
CC(C)n1cncc(-c2cc(F)c(C3(NC(=O)c4ncc5cnn(C(C)C)c5n4)CC3)c(F)c2)c1=O [Compound 92] | 104
CC(C)n1ncc2cnc(C(=O)NC3(c4ccc(-c5cncn([C@H](C)C(F)(F)F)c5=O)cc4)CC3)nc21 [Compound 39] | 59
CC(C)n1cncc(-c2ccc(C3(NC(=O)c4ncc5cnn(-c6ccccc6)c5n4)CC3)cc2)c1=O [Compound 19] | 71
CC(C)n1ncc2cnc(C(=O)NC3(c4ccc(-c5cncn(CC(F)(F)F)c5=O)cc4)CC3)nc21 [Compound 38] | 48
CC(C)n1cncc(-c2ccc(C3(NC(=O)c4ncn(Cc5ccccc5)n4)CC3)cc2)c1=O [Compound 17] | 15
CC(C)n1ncc2cnc(C(=O)NC3(c4ccc(-c5cncn([C@@H]6C[C@@H]6F)c5=O)cc4)CC3)nc21 [Compound 69] | 21
O=C(NC1(c2ccc(-c3cncn(CC4CC4)c3=O)cc2)CC1)c1ncc2cnn(CC3CC3)c2n1 [Compound 64] | 17
C[C@H](n1cncc(-c2ccc(C3(NC(=O)c4ncc5cnn(CC6CC6)c5n4)CC3)c(F)c2)c1=O)C(F)(F)F [Compound 71] | 110
CC(C)n1ncc2cnc(C(=O)NC3(c4ccc(-c5cncn(C6(C)CC6)c5=O)cc4)CC3)nc21 [Compound 78] | 33
C[C@H](c1ccccc1)n1cnc(C(=O)NC2(c3ccc(-c4cncn(C)c4=O)cc3)CC2)n1 [Compound 55, (R)—N-(1-(4-(1-methyl-6-oxo-1,6-dihydropyrimidin-5-yl)phenyl)cyclopropyl)-1-(1-phenylethyl)-1H-1,2,4-triazole-3-carboxamide] | 23
CC(C#N)n1cncc(-c2ccc(C3(NC(=O)c4ncc5cnn(C(C)C)c5n4)CC3)cc2)c1=O (stereo in doubt) [Compound 83, (S)—N-(1-(4-(1-(1-cyanoethyl)-6-oxo-1,6-dihydropyrimidin-5-yl)phenyl)cyclopropyl)-1-i-propyl-1H-pyrazolo[3,4-d]pyrimidine-6-carboxamide] | 47
CC(C)n1cncc(-c2ccc(C3(NC(=O)c4ncc5cnn(C(C)C)c5n4)CC3)cc2)c1=O [Compound 29, 1-isopropyl-N-(1-(4-(1-isopropyl-6-oxo-1,6-dihydropyrimidin-5-yl)phenyl)cyclopropyl)-1H-pyrazolo[3,4-d]pyrimidine-6-carboxamide] | 19
CC(C)n1ncc2cnc(C(=O)NC3(c4ccc(-c5cncn(C)c5=O)c(F)c4)CC3)nc21 [Compound 23, N-(1-(3-fluoro-4-(1-methyl-6-oxo-1,6-dihydropyrimidin-5-yl)phenyl)cyclopropyl)-1-isopropyl-1H-pyrazolo[3,4-d]pyrimidine-6-carboxamide] | 49
CC(C)n1cncc(-c2ccc(C3(NC(=O)c4ncc5cnn(CC6CC6)c5n4)CC3)cc2)c1=O [Compound 61] | 14
CCn1cncc(-c2ccc(C3(NC(=O)c4ncc5cnn(C(C)C)c5n4)CC3)cc2)c1=O [Compound 37] | 41
